{"source": "patent US20250171448A1", "about": "“SOLID STATE FORMS OF GUSACITINIB” (TEVA PHARMACEUTICALS INTERNATIONAL GMBH, priority 2022, published 2025)", "format_in_all_cases": "physicochemical", "key": {"[1]": {"assay": "Stability under tested stress conditions (grinding, pressure of 2 tons, humidity, temperature), summary statements", "conditions": "strong grinding; for stability under all tested stress conditions: high temperature up to 100° C."}, "[2]": {"assay": "Storage stability at different relative humidity (XRPD after 7 days)", "conditions": "ambient temperature; for XRPD analysis results 60% (7 days): polymorphic conversion: 60% relative humidity", "method": "Samples of Gusacitinib Forms: GS2, GS3, GS4 and Gusacitinib HCl salt Forms GHC11, GHC12, GHC18 were subjected to conditions of different relative humidity at ambient temperature. XRPD analysis was performed on the samples after 7 days.\nA sample of Form GHC13 of Gusacitinib HCl salt was subjected to 60% relative humidity for 7 days."}, "[3]": {"assay": "Grinding experiments (strong grinding and solvent drop grinding, XRPD)", "method": "Samples of Gusacitinib Forms: GS2, GS3, GS4 and Gusacitinib HCl salt Forms: GHC11, GHC12, GHC13, GHC18 were subjected to strong grinding, and to solvent drop grinding in isopropanol, ethanol and water. Grinding was carried out on the sample alone, or in the presence of the solvent. In these experiments, about 20 mg of the sample is placed in a mortar and ground with a pestle for 2 minutes. The solvent, when used, was added to the crystalline material before grinding, in a volume of 10 microlitres. XRPD analysis performed on the sample after the grinding experiment, confirmed no conversion of the starting material (Table 2): […]"}, "[4]": {"assay": "Thermal stability (heating up to 100° C. for 30 minutes, XRPD)", "method": "Samples of Gusacitinib Forms: GS2, GS3, GS4 and Gusacitinib HCl salt Forms GHC11, GHC12 and GHC18 were subjected to heating up to 100° C. for 30 minutes. XRPD analysis of the samples confirmed there to be no change in the starting material (Table 3): […]"}}}
{"smiles": "N#CCC1CCN(c2nc(Nc3ccc(N4CCC(O)CC4)cc3)c3c(=O)[nH]ncc3n2)CC1", "note": "[Form GHC11]", "values": [{"measurement": "stability under all tested stress conditions", "setting": "[1]; high humidity up to 100% RH for 7 days", "result": "stable"}, {"measurement": "XRPD analysis results 60% (7 days): polymorphic conversion", "setting": "[2]; listed as GHCl1", "result": "No"}]}
{"smiles": "N#CCC1CCN(c2nc(Nc3ccc(N4CCC(O)CC4)cc3)c3c(=O)[nH]ncc3n2)CC1", "note": "[Form GHC12]", "values": [{"measurement": "XRPD analysis results 60% (7 days): polymorphic conversion", "setting": "[2]; listed as GHCl2", "result": "No"}]}
{"smiles": "N#CCC1CCN(c2nc(Nc3ccc(N4CCC(O)CC4)cc3)c3c(=O)[nH]ncc3n2)CC1", "note": "[Form GHC13]", "values": [{"measurement": "stability under tested stress conditions", "setting": "[1]; high humidity up to 60% RH for 7 days", "result": "stable"}, {"measurement": "XRPD analysis results 60% (7 days): polymorphic conversion", "setting": "[2]", "result": "no polymorphic conversion"}]}
{"smiles": "N#CCC1CCN(c2nc(Nc3ccc(N4CCC(O)CC4)cc3)c3c(=O)[nH]ncc3n2)CC1", "note": "[Form GHC18]", "values": [{"measurement": "XRPD analysis results 60% (7 days): polymorphic conversion", "setting": "[2]; listed as GHCl8", "result": "No"}]}
{"smiles": "N#CCC1CCN(c2nc(Nc3ccc(N4CCC(O)CC4)cc3)c3c(=O)[nH]ncc3n2)CC1", "note": "[Form GS2, 2-[1-[4-[4-(4-hydroxypiperidin-1-yl)anilino]-5-oxo-6H-pyrimido[4,5-d]pyridazin-2-yl]piperidin-4-yl]acetonitrile]", "values": [{"measurement": "XRPD analysis results, Solvent-drop grinding (ethanol)", "setting": "[3]; about 20 mg ground 2 minutes, 10 microlitres ethanol", "result": "No polymorphic"}, {"measurement": "XRPD analysis results, Solvent-drop grinding (isopropyl alcohol)", "setting": "[3]; about 20 mg ground 2 minutes, 10 microlitres isopropyl alcohol", "result": "No polymorphic"}, {"measurement": "XRPD analysis results, Solvent-drop grinding (water)", "setting": "[3]; about 20 mg ground 2 minutes, 10 microlitres water", "result": "No polymorphic"}, {"measurement": "XRPD analysis results, Strong grinding", "setting": "[3]; about 20 mg ground with mortar and pestle for 2 minutes, no solvent", "result": "No polymorphic"}, {"measurement": "Result, Heating 100° C., 30 minutes", "setting": "[4]", "result": "Stable"}, {"measurement": "XRPD analysis results 60% (7 days): polymorphic conversion", "setting": "[2]; listed as GS2", "result": "No"}]}
{"smiles": "N#CCC1CCN(c2nc(Nc3ccc(N4CCC(O)CC4)cc3)c3c(=O)[nH]ncc3n2)CC1", "note": "[Form GS3, 2-[1-[4-[4-(4-hydroxypiperidin-1-yl)anilino]-5-oxo-6H-pyrimido[4,5-d]pyridazin-2-yl]piperidin-4-yl]acetonitrile]", "values": [{"measurement": "XRPD analysis results 60% (7 days): polymorphic conversion", "setting": "[2]; listed as GS3", "result": "No"}]}
{"smiles": "N#CCC1CCN(c2nc(Nc3ccc(N4CCC(O)CC4)cc3)c3c(=O)[nH]ncc3n2)CC1", "note": "[Form GS4, 2-[1-[4-[4-(4-hydroxypiperidin-1-yl)anilino]-5-oxo-6H-pyrimido[4,5-d]pyridazin-2-yl]piperidin-4-yl]acetonitrile]", "values": [{"measurement": "stability under all tested stress conditions", "setting": "[1]; high humidity up to 80% RH for 7 days", "result": "stable"}, {"measurement": "XRPD analysis results 60% (7 days): polymorphic conversion", "setting": "[2]; listed as GS4", "result": "No"}, {"measurement": "XRPD analysis results 80% (7 days): polymorphic conversion", "setting": "[2]; 80% relative humidity", "result": "No"}, {"measurement": "XRPD analysis results 100% (7 days): polymorphic conversion", "setting": "[2]; 100% relative humidity", "result": "No"}]}
